This note sets out measurements from article PMC11472310, “Distinctive Immune Signatures Driven by Structural Alterations in Desmuramylpeptide NOD2 Agonists” (Journal of Medicinal Chemistry, 2024).

One may read the solubility (kinetic) as the concentration staying in solution when a stock, usually in DMSO, is diluted into the medium.

One series deals with K562 cancer cells. The experiment in a line: PBMC cytotoxicity against K562 cancer cells (flow cytometry). The class given is cell-based. To be noted: for cytotoxicity of PBMCs against K562 cells, cotreatment with LPS (relative to negative control) / Cytotoxicity (ratio to control), + LPS: 10 μM + LPS 1 μg/mL; for cytotoxicity of PBMCs against K562 cells, cotreatment with LPS (relative to negative control) / enhancement of cytotoxicity of PBMCs against K562 cells (relative to negative control): 18 h, then 4 h coincubation; for cytotoxicity of PBMCs against K562 cells, cotreatment with LPS (relative to negative control): 40:1; for Cytotoxicity (ratio to control), + LPS / Cytotoxicity (ratio to control): Table S2; for Cytotoxicity (ratio to control) / enhancement of cytotoxicity of PBMCs against K562 cells (relative to negative control): alone: compounds 10 μM, LPS 1 μg/mL, IL-2 200 U/mL; for enhancement of cytotoxicity of PBMCs against K562 cells (relative to negative control): effector:target 40:1. The procedure: In this study, we investigated the potential of desmuramylpeptides, both alone and in combination with LPS, to enhance the cytotoxic activity of PBMCs against cancer cells employing a flow-cytometry-based cytotoxicity assay based on coincubation of preactivated PBMCs with fluorescently labeled K562 cancer cells.[82] Among the diverse subpopulations within PBMCs, natural killer (NK) cells play a pivotal role in detecting and eliminating cancer cells. NOD2-mediated NK cell activity against cancer cells arises from both direct NOD2 agonist elicited cytolytic activity of NK cells[83] and indirect activation through cytokine release by other NOD2-responsive cells, such as monocytes, which comprise approximately 10% of PBMCs; such interactions potentially reinforce the immune response.[84] […] To that end, we utilized the entire PBMC population as effector cells rather than isolated NK cells, to mimic conditions more closely resembling the in vivo environment while K562 chronic myelogenous leukemia cells were used as the target cells in a 40:1 effector to target cell ratio.[87]
(§1) The PBMC cytotoxicity assays utilizing K562 cells were conducted following previously established methods, with some adjustments.[82] […] Meanwhile, K562 cells were stained with CFSE (Invitrogen, Carlsbad, CA, USA), washed twice with complete medium, and then added (1 × 10^4 cells per well) to the pretreated PBMCs to achieve a final effector cell to target tumor cell ratio of 40:1. Following a 4-h coincubation period at 37 °C with 5% CO2, cells were stained with Sytox blue dead cell stain (Invitrogen) and analyzed using an Attune NxT flow cytometer (Thermo Fisher Scientific, Waltham, MA, USA) along with FlowJo software (Tree Star, Inc., Ashland, OR, USA). Cells positive for both CFSE and Sytox blue were designated as dead K562 cells. PBMCs alone and CFSE-labeled cancer cells alone were also exposed to the compounds at equivalent concentrations and stained with Sytox blue to assess any direct cytotoxic effects of the compounds on PBMCs and cancer cells separately. Each experiment was conducted in duplicate and repeated in three independent biological replicates. Statistical analysis was performed using one-way ANOVA followed by Dunnett’s multiple comparisons test.
(Flow cytometry measures light scatter and fluorescence of single cells or particles in a stream.)

Another series has as its system BMDC/T-cell cocultures. The experiment in a line: T cell cytokine release in BMDC/T-cell cocultures. The class given is cell-based, C57BL/6 mouse. To be noted: 10 μM; for levels of IL-6 and TNF-α secreted by CD4+ T cells: 72 h coculture. The procedure: For this study, we narrowed down the selection of suitable desmuramylpeptides even further. In order to assess the adjuvant potential of selected desmuramylpeptides with regard to their effect on DC-mediated activation of CD4^+ and CD8^+ T cells, we conducted an ex vivo antigen-presentation assay utilizing C57BL/6 mouse bone marrow-derived DCs (BMDCs). Upon stimulation with desmuramylpeptides at 10 μM, in conjunction with ovalbumin soluble protein (50 μg/mL), BMDCs were cocultured with carboxyfluorescein succinimidyl ester (CFSE)-labeled naïve ovalbumin-specific CD4^+ or CD8^+ T cells, which were isolated from splenocytes of OT II and OT I transgenic mice, respectively. […] Additionally, we investigated how the priming of T cells elicited by the tested compounds impacted the cytokine profiles secreted in BMDC/T-cell cocultures.
Following 72 h of coincubation with BMDCs (pretreated with desmuramylpeptides [10 μM] and washed), supernatants from CD4^+ and CD8^+ T cells were harvested as previously described. […] Standard curves were constructed using recombinant cytokines provided in the kit. Data analysis was conducted using FlowJo (Tree Star, Inc., Ashland, OR, USA) and Prism (GraphPad, San Diego, CA, USA) software. Each experiment was performed in duplicate and replicated in two independent biological runs.

The test system of the next series is PBMCs. The experiment in a line: Direct cytotoxic effect of compounds on PBMCs (Sytox blue). The class given is cell-based. To be noted: Table S2; for Percent of dead PBMCs, + LPS: 10 μM + LPS 1 μg/mL; for Percent of dead PBMCs: alone: compounds 10 μM, LPS 1 μg/mL, IL-2 200 U/mL. The procedure:
Additionally, PBMCs and cancer cells alone were treated with desmuramylpeptides to assess any direct cytotoxic effects on these cells.
as §1

In another series the test system is human PBMCs. The experiment in a line: Cytokine release from peripheral blood mononuclear cells (LEGENDplex panel). The class given is cell-based. The conditions noted are these: 18 h. The source says: The immunomodulatory effects of the selected desmuramylpeptides were examined in human primary peripheral blood mononuclear cells (PBMCs). This diverse mixture of immune cells provided a platform to investigate the effects of these NOD2 agonists within a physiologically relevant environment, encompassing other NOD2-interacting and downstream signaling proteins. […] Given that NOD2 activation often modulates the Toll-like receptor (TLR)-induced cytokine responses, we investigated the impact of combining desmuramylpeptides with lipopolysaccharide (LPS), a well-known TLR4 agonist, on cytokine secretion.[76]−[78]
The elicited cytokine profiles thus broadly reflect the structure–activity relationships obtained in the reporter gene assays.
Peripheral blood mononuclear cells were plated at a density of 1 × 10^6 cells/mL in 48-well plates containing 500 μL of growth medium. Cells were then treated with the compounds (2 μM) or the corresponding vehicle (0.1% DMSO), both in the absence and presence of LPS (10 ng/mL). Following an 18 h incubation period at 37 °C with 5% CO2, cell-free supernatants were collected and stored at −80 °C until analysis. […] Standard curves were constructed using recombinant cytokines provided in the kit. Data analysis was performed using Biolegend software Qognit and Prism (GraphPad, San Diego, CA, USA) software. The experiments were independently replicated four times. Statistical significance was determined using two-way analysis of variance (ANOVA) followed by Tukey’s multiple comparisons test.

Series [1] can be described thus: Kinetic solubility (method of Hoelke et al.). The class given is physicochemical. The source says: Park et al. have shown that the degree of saturation of fatty acids exerts a profound impact on permeability of fatty acylated peptides—a higher degree of unsaturation results in higher permeability.[43] PUFA can also induce significant biophysical perturbations upon incorporation into membrane phospholipids.[67],[68] […] Given that the hydrophobicity of fatty acyl residues in general reduces as the number of unsaturated sites increases,[69],[70] we decided to ascertain how such structural modifications translate to the kinetic solubility of the molecule as a whole. […] The acylation with PUFA thus provides an elegant, albeit counterintuitive, approach, by which permeability of the molecule as a whole as well as its capacity for liposomal encapsulation can be enhanced without completely abolishing its aqueous solubility.

Converted amounts (≈) assume the structure as drawn.

Turning to `CCCC(=O)Oc1ccc(/C=C/C(=O)NCC(=O)N[C@H](C(=O)N[C@H](CCC(=O)OCC)C(=O)OCC)C(C)C)cc1OC` [Compound 3, Diethyl ((E)-3-(4-(Butyryloxy)-3-methoxyphenyl)acryloyl)glycyl-L-valyl-D-glutamate], in the series on K562 cancer cells, the “cytotoxicity of PBMCs against K562 cells, cotreatment with LPS (relative to negative control)” value was found to be 0.98 fold; the “Cytotoxicity (ratio to control), + LPS” value was 0.98 ± 0.18; the “Cytotoxicity (ratio to control)” value stood at 1.04 ± 0.06; the “enhancement of cytotoxicity of PBMCs against K562 cells (relative to negative control)” value (“enhancement … (relative to negative control)” below) was “no activity”. In addition, the “levels of IL-6 and TNF-α secreted by CD4+ T cells” value in the series with BMDC/T-cell cocultures is “slightly increased”. Also, in the series with BMDC/T-cell cocultures (CD4+ T cell coculture, 72 h), the “stimulating IL-2 and IL-9 production” value is reported as “most notable”. In the series on PBMCs, the “Percent of dead PBMCs, + LPS” value is on record as 3.34% ± 0.35% and the “Percent of dead PBMCs” value is listed as 1.14% ± 0.23%. Further, in the series on human PBMCs (2 μM + LPS 10 ng/mL), the “levels of LPS-induced IL-10” value was “amplified”; the “production of MCP-1 and IFN-γ compared to the MDP/LPS combination” value is on record as “significantly diminished production”; the “secretion of IL-1β, IL-10 and TGFβ compared to the MDP/LPS combination” value is on record as “increased secretion”. This compound also gave a solubility (kinetic) in series [1] of 178 µM (≈ 108 µg/mL).

As to `CC/C=C\C/C=C\C/C=C\C/C=C\C/C=C\CCCC(=O)Oc1ccc(/C=C/C(=O)NCC(=O)N[C@H](C(=O)N[C@H](CCC(=O)OCC)C(=O)OCC)C(C)C)cc1OC` [Compound 23, Diethyl ((E)-3-(4-(((5Z,8Z,11Z,14Z,17Z)-Icosa-5,8,11,14,17-pentaenoyl)oxy)-3-methoxyphenyl)acryloyl)glycyl-L-valyl-D-glutamate], in the series with K562 cancer cells, the “cytotoxicity of PBMCs against K562 cells, cotreatment with LPS (relative to negative control)” value was 1.30 fold; the “Cytotoxicity (ratio to control), + LPS” value turned out to be 1.30 ± 0.26; the “Cytotoxicity (ratio to control)” value turned out to be 1.02 ± 0.08; the “enhancement … (relative to negative control)” value is recorded as “no activity”. For the same compound, the “levels of IL-6 and TNF-α secreted by CD4+ T cells” value with BMDC/T-cell cocultures is listed as “slightly increased”. In the series with BMDC/T-cell cocultures (CD4+ T cell coculture, 72 h), the “production of the Th9-associated cytokine IL-9” value is reported as “augmented”; the “stimulating IL-2 and IL-9 production” value is “most notable”. In the series on PBMCs, the “Percent of dead PBMCs, + LPS” value is reported as 11.4% ± 2.64% and the “Percent of dead PBMCs” value was 1.28% ± 0.06%. For the same compound, in the series with human PBMCs (2 μM + LPS 10 ng/mL), the “levels of LPS-induced IL-10” value was “amplified”; the “production of MCP-1 and IFN-γ compared to the MDP/LPS combination” value was “significantly diminished production”; the “secretion of IL-1β, IL-10 and TGFβ compared to the MDP/LPS combination” value was “increased secretion”. This compound had a solubility (kinetic) in series [1] of 105 µM (≈ 86.1 µg/mL). For the same compound, the “diminished solubility compared to parent compound 1” value in series [1] (kinetic solubility) was 4 factor.

Consider `CCOC(=O)CC[C@@H](NC(=O)[C@@H](NC(=O)CNC(=O)/C=C/c1ccc(OC(=O)CO[C@H]2CC[C@@]3(C)C(=CC[C@H]4[C@@H]5CC[C@H]([C@H](C)CCCC(C)C)[C@@]5(C)CC[C@@H]43)C2)c(OC)c1)C(C)C)C(=O)OCC` [Compound 26, Diethyl ((E)-3-(4-(2-(((8S,9S,10R,13R,14S,17R)-10,13-Dimethyl-17-((R)-6-methylheptan-2-yl)-2,3,4,7,8,9,10,11,12,13,14,15,16,17-tetradecahydro-1H-cyclopenta[a]phenanthren-3-yl)oxy)acetoxy)-3-methoxyphenyl)acryloyl)glycyl-L-valyl-D-glutamate], for which, in the series on K562 cancer cells, the “cytotoxicity of PBMCs against K562 cells, cotreatment with LPS (relative to negative control)” value was 2.39 fold; the “Cytotoxicity (ratio to control), + LPS” value was 2.39 ± 0.27; the “Cytotoxicity (ratio to control)” value was 1.34 ± 0.05; the “enhancement … (relative to negative control)” value is 1.34 fold. Also, in the series with PBMCs, the “Percent of dead PBMCs, + LPS” value was 9.93% ± 0.49% and the “Percent of dead PBMCs” value was 1.08% ± 0.10%. In the series on human PBMCs (2 μM + LPS 10 ng/mL), the “levels of LPS-induced IL-10” value is given as “amplified”; the “production of IL-12p70 and TNF-α compared to MDP” value is “higher production”. Also, the “capacity to induce IP-10 and IFN-γ secretion” value in the series on human PBMCs (2 μM + LPS 10 ng/mL, versus MDP) is given as “comparable to MDP”. In addition, the “production of proinflammatory cytokines and chemokines including IL-6, IL-8 and MCP-1” value in the series on human PBMCs (2 μM alone (no LPS)) is recorded as “smaller increases”.
